Patent US12421242B2, “Substituted tetrahydropyrrolo-pyridinone compounds and their use in treating medical conditions” (Karuna Therapeutics, Inc., priority 2022, dated 2025)

Assays:
hM4 receptors = molecular target: T1, hM4 receptors (Homo sapiens, UniProt P08173); test: Human M4 PAM pERK assay; assay type: cell-based; settings: PAM mode
T1 construct: expressed in transfected cells; host or cells: CHO cells
T1 sequence (P08173 1-479): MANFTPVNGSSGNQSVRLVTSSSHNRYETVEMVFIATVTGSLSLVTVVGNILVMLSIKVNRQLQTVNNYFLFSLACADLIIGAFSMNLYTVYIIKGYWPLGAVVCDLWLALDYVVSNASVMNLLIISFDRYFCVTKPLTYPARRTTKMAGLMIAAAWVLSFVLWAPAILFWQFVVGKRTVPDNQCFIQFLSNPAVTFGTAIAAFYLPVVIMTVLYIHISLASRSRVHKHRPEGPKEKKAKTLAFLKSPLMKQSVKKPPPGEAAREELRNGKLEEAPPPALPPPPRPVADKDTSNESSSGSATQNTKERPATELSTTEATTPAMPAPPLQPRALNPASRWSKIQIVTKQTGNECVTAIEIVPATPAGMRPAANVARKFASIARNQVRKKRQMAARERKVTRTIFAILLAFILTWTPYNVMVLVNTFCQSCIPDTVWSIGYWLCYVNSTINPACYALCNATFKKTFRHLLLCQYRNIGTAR
Procedure: (§1) Chinese hamster ovary (CHO) cells expressing either hM4 or rM4 receptors were frozen in assay ready vials (5×10^6 cells/vial) after bulking-up in culture. The day before an assay, vial(s) were thawed and cells seeded in 384 well white proxiplates at 1000/well for hM4 cells and at 2000/well for rM4 cells, in 10 μL of growth media (Hams/F12 with glutamax and 10% FCS) and incubated overnight at 37° C./5% CO2.
(§2) On the following morning, the growth media was removed by ‘flicking out’ over a bin, patting the inverted plate onto tissue, and then replacing with 10 μL of wash media (Hams/F12 with glutamax and 8 mM HEPES, NB: serum free). Then, the wash media was removed in the same way and replaced with 8 μL/well of the serum free media. Plates were then re-incubated for a further 4 hours at 37° C./5% CO2.
(§3) Compounds for testing were solubilized to 10 mM in DMSO and compound addition plates, consisting of ten-point concentration response curves (CRC) in duplicate points (10 μM top concentration, […]), were prepared by acoustic dispensing and the compound management group.
(§4) After the 4-hour incubation in serum free media, a 4 μL aliquot of the 3× compound solution containing an EC20 of acetylcholine (10 nM final concentration) was added to the cell plate using a 384 well plate to plate transfer. Then, the plate lid was replaced, and the cells incubated for 5 mins at 37° C./5% CO2. Following this final incubation, all cellular processes were stopped by the addition of 4 μL/well of lysis and blocking buffer and plates were incubated for 30 minutes at RT on an orbital shaker (gentle setting). Then, a final addition of 4 μL/well of antibody detection mix, containing both the Europium-Cryptate (donor) and d2 (acceptor) tagged detection components, was added followed by a further 2-hour incubation at RT, and then the plate was read using a TR-FRET (time resolved fluorescence resonance energy transfer) based protocol.

rM4 receptors = molecular target: T2, rM4 receptors (Rattus norvegicus, UniProt P08485); test: Rat M4 PAM pERK assay; assay type: cell-based; settings: PAM mode
T2 construct: expressed in transfected cells; host or cells: CHO cells
T2 sequence (P08485 1-478): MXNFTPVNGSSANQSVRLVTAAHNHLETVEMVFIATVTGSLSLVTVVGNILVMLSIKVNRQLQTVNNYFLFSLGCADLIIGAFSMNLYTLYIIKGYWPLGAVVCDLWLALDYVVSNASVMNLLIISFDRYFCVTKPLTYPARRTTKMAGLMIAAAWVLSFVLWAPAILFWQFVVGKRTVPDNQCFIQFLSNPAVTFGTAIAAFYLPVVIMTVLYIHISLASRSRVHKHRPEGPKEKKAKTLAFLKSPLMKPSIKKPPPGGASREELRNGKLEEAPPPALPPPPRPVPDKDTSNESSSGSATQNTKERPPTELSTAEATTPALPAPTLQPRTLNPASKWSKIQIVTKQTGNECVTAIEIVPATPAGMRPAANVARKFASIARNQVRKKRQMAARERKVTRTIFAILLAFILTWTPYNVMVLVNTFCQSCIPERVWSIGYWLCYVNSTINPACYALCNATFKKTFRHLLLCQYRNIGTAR
Procedure: as §1, §2, §3, §4

human M4 receptor = molecular target: T3, human M4 receptor (Homo sapiens, UniProt P08173); test: M4 GTPγS PAM assay; assay type: biochemical; settings: CHO-K1 membranes expressing human M4, with EC20 acetylcholine (40 nM)
T3 construct: expressed in transfected cells
T3 sequence (P08173 1-479): T1 sequence (P08173 1-479)
Procedure: The M4 GTPγS PAM method was used. Membranes were prepared for GTPgS binding assays from CHO-K1 cells stably expressing human M4 receptor. Briefly, cells were grown in 5-layer cell culture flasks. Cells were washed with 50 mL of PBS and then dissociated with 0.05% trypsin. Dissociated cells were then collected by centrifugation at 650×g for 8 minutes at 4° C. Pellets were washed again in PBS by centrifugation and resuspended in 30 mL of 20 mM HEPES, 10 mM EDTA, pH 7.4. After sitting on ice for 30 min, membranes were collected by centrifugation at 50000×g for 15′ at 4° C., resuspended in 30 mL of 20 mM HEPES, 0.1 mM EDTA, pH 7.4 and collected again by centrifugation. Pellets were then washed twice by centrifugation in 30 mL of 20 mM HEPES, pH 7.4, and stored at −80° C. until the day of the assay. On the day of the assay, pellets were thawed on ice and resuspended in 1 mL of 20 mM HEPES, pH 7.4, 10 mM MgCl2, 100 mM NaCl using dounce homogenization. Membrane protein concentration is determined by BCA protein assay (Promega, Madison, WI) according to Promega guidelines.
On the day of the assay, serial dilutions of test PAM compounds were brought up in assay buffer (20 mM HEPES, 10 mM MgCl2, 100 mM NaCl) at 4× final assay concentration. […] of membrane homogenates (containing […] of membrane protein) were prepared in assay buffer supplemented with GDP at 4× final assay concentration (final assay concentration of GDP is 5 uM for M2 and 0.1 uM for M4) and dispensed into 96 well polypropylene, U-bottom Greiner plates. […] of vehicle or test PAM compound at 4× of final assay concentration diluted in the assay buffer were added to membrane and plates are incubated for 10-15 minutes at room temperature with gentle shaking. Then, […] of EC20 acetylcholine in assay buffer at 4× final assay concentration was added to assay plates (EC20 final assay concentrations was 40 nM for human M4).
Plates were then incubated, with shaking, for an additional 10-15 minutes. 25 mL of 0.4 nM ^35S-GTP (Perkin Elmer, Waltham, MA) in assay buffer was added to assay mixtures. The binding reaction is left on the shaker for 1 hour at room temperature. Membranes in assay reactions were then transferred to GF/C filter plates (Unifilter, Perkin Elmer) and washed three times using a FilterMate Harvester (Perkin Elmer) with cold assay buffer containing no GDP. Filter plates were then dried at 40° C. overnight followed by the addition of […] of Beta Plate Scintillation liquid. Plates are top and bottom sealed before being read on TopCount scintillation counter (Perkin Elmer, Waltham, MA).

EC50 (hM4 receptors) [nM]	EC50 (rM4 receptors) [nM]	EC50 (human M4 receptor) [nM]	Structure (SMILES)
100 to 500	> 2000	500 to 2000	Cc1c(OC(F)F)c2c(n(C)c1=O)CN(C(=O)c1cnn(C(F)(F)F)c1)C2 [Compound I-89, 4-(Difluoromethoxy)-1,3-dimethyl-6-(1-(trifluoromethyl)-1H-pyrazole-4-carbonyl)-1,5,6,7-tetrahydro-2H-pyrrolo[3,4-b]pyridin-2-one]
100 to 500	500 to 2000	< 100	Cc1c2c(n(C)c(=O)c1Cl)CN(C(=O)c1ccc(C(F)(F)F)nc1)C2 [Compound I-44]
< 100	500 to 2000	> 2000	Cc1c2c(n(C)c(=O)c1Cl)CN(C(=O)c1cnn(C(F)F)c1)C2 [Compound I-17]
100 to 500	500 to 2000	100 to 500	COc1c2c(n(C)c(=O)c1C)CN(C(=O)c1cnn(C(F)(F)F)c1)C2C (racemic) [Compound I-82, 4-Methoxy-1,3,5-trimethyl-6-(1-(trifluoromethyl)-1H-pyrazole-4-carbonyl)-1,5,6,7-tetrahydro-2H-pyrrolo[3,4-b]pyridin-2-one]
100 to 500	500 to 2000	100 to 500	Cc1c2c(n(C)c(=O)c1Cl)CN(C(=O)c1ccc(C(F)(F)F)cc1)C2 [Compound I-41]
< 100	> 2000	100 to 500	Cc1c2c(n(C)c(=O)c1C)CN(C(=O)c1cnn(C(F)(F)F)c1)C2 [Compound I-112]
100 to 500	> 2000	500 to 2000	Cc1c2c(n(C)c(=O)c1Cl)CN(C(=O)c1cc3n(n1)CCCC3)C2 [Compound I-32]
> 2000		> 2000	Cc1c2c(n(C)c(=O)c1Cl)CN(C(=O)c1cn(C)c(C)n1)C2 [Compound I-11]
100 to 500	500 to 2000	500 to 2000	Cc1c2c(n(C)c(=O)c1Cl)CN(C(=O)c1ccc3nc(C(F)(F)F)sc3c1)C2 [Compound I-49]
< 100	500 to 2000	100 to 500	Cc1c2c(n(C)c(=O)c1Cl)CN(C(=O)c1cnc(C3CC3)s1)C2 [Compound I-21]
100 to 500	> 2000	> 2000	Cc1c2c(n(C)c(=O)c1Cl)CN(C(=O)c1csc(C(F)(F)F)n1)C2 [Compound I-26]
> 2000		> 2000	Cc1c2c(n(C)c(=O)c1Cl)CN(C(=O)c1cncc(C(F)(F)F)c1)C2 [Compound I-48]
100 to 500	> 2000	> 2000	Cc1nc(C(=O)N2Cc3c(C)c(Cl)c(=O)n(C)c3C2)co1 [Compound I-12]
< 100	> 2000	> 2000	Cc1c2c(n(C)c(=O)c1Cl)CN(C(=O)c1cc(C(F)(F)F)on1)C2 [Compound I-8]
100 to 500	> 2000	500 to 2000	CSc1c2c(n(C)c(=O)c1C)CN(C(=O)c1cnn(C(F)(F)F)c1)C2 [Compound I-90, 1,3-Dimethyl-4-(methylthio)-6-(1-(trifluoromethyl)-1H-pyrazole-4-carbonyl)-1,5,6,7-tetrahydro-2H-pyrrolo[3,4-b]pyridin-2-one]
> 2000		> 2000	Cc1cc(=O)n(C)c2c1CN(C(=O)c1cnn(C)c1)C2C (stereo not drawn) [Compound I-105, 1,4,7-Trimethyl-6-(1-methyl-1H-pyrazole-4-carbonyl)-1,5,6,7-tetrahydro-2H-pyrrolo[3,4-b]pyridin-2-one]
500 to 2000	> 2000		Cc1c2c(n(C)c(=O)c1Cl)CN(C(=O)c1cnn(Cc3cccnc3)c1)C2 [Compound I-59, 3-Chloro-1,4-dimethyl-6-(1-(pyridin-3-ylmethyl)-1H-pyrazole-4-carbonyl)-1,5,6,7-tetrahydro-2H-pyrrolo[3,4-b]pyridin-2-one]
500 to 2000	> 2000		Cc1c2c(n(C)c(=O)c1Cl)CN(C(=O)c1cc(CC(F)(F)F)on1)C2 [Compound I-58, 3-Chloro-1,4-dimethyl-6-(5-(2,2,2-trifluoroethyl)isoxazole-3-carbonyl)-1,5,6,7-tetrahydro-2H-pyrrolo[3,4-b]pyridin-2-one]
100 to 500	> 2000		Cc1c2c(n(C)c(=O)c1Cl)CN(C(=O)c1cnn(C(C)C)c1)C2 [Compound I-10]
< 100	500 to 2000		Cc1c2c(n(C)c(=O)c1Cl)CN(C(=O)c1ccc3ncsc3c1)C2 [Compound I-46]
< 100	100 to 500		Cc1c2c(n(C)c(=O)c1Cl)CN(C(=O)c1ccc3nc(C4CCC4)sc3c1)C2 [Compound I-51, 3-Chloro-6-(2-cyclobutylbenzo[d]thiazole-6-carbonyl)-1,4-dimethyl-1,5,6,7-tetrahydro-2H-pyrrolo[3,4-b]pyridin-2-one]
> 2000		> 2000	Cc1cc(=O)n(C)c2c1CN(C(=O)c1cnn(C)c1)C2C (single isomer, unassigned) [Compound I-106]
100 to 500	> 2000		Cc1c2c(n(C)c(=O)c1Cl)CN(C(=O)c1ccn(C(F)(F)F)n1)C2 [Compound I-16]
100 to 500	> 2000		CSc1c2c(n(C)c(=O)c1C)CN(C(=O)c1cnc(CC3CC3)s1)C2 [Compound I-91]
< 100	100 to 500		Cc1c2c(n(C)c(=O)c1C)CN(C(=O)c1cnn(C(F)(F)F)c1)[C@@H]2C [Compound I-78, (R)-1,3,4,5-Tetramethyl-6-(1-(trifluoromethyl)-1H-pyrazole-4-carbonyl)-1,5,6,7-tetrahydro-2H-pyrrolo[3,4-b]pyridin-2-one]
